According to US12492173B2, “Herbicidal substituted N-tetrazolyl aryl carboxamides” (Bayer Aktiengesellschaft, priority 2019, dated 2025):

Columns and labels:
Type in all cases: in vivo
Setaria viridis [1] = assay: Pre-emergence herbicidal action, SETVI; set-up: key to Herbicidal action against SETVI: % activity: 100 = plants have died, 0 = like control plants; conditions: for herbicidal action SETVI / herbicidal activity SETVI: dosage 320 g/ha; for herbicidal activity SETVI: scored visually after 3 weeks vs untreated controls (100% = plants have died)
Method in brief: (§1)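 Visual scoring after 3 weeks in the greenhouse, relative to untreated pots, gave percent activity, where 100% means dead plants and 0% equals controls. Treatment was a pre-emergence soil-surface spray of WP or EC formulations in water (600 to 800 l/ha, 0.2% wetting agent) over seeds covered in sandy loam.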

Pharbitis purpurea [2] = assay: Post-emergence herbicidal action, PHBPU; conditions: for herbicidal action PHBPU: Dosage 80 g/ha
Method in brief: (§2)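 Percent herbicidal effect was judged by eye against untreated controls around 3 weeks after foliar treatment, where 100% meant dead plants. Spraying took place at the one-leaf stage using wettable powder or emulsion concentrate diluted in water (600 to 800 l/ha) with added wetting agent at 0.2%.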

Amaranthus retroflexus = assay: Post-emergence herbicidal action, AMARE; set-up: key: % herbicidal action vs untreated; 100 = plants died, 0 = like control; conditions: for herbicidal action AMARE: Dosage 80 g/ha
Method in brief: as §2

Setaria viridis [3] = assay: Post-emergence herbicidal action, SETVI; set-up: key: % herbicidal action vs untreated; 100 = plants died, 0 = like control; conditions: for herbicidal action SETVI: Dosage 80 g/ha
Method in brief: as §2

Echinochloa crus-galli = assay: Pre-emergence herbicidal action, ECHCG; set-up: key to Herbicidal action against ECHCG: % activity: 100 = plants have died, 0 = like control plants; conditions: for herbicidal action ECHCG / herbicidal activity ECHCG: dosage 320 g/ha; for herbicidal activity ECHCG: scored visually after 3 weeks vs untreated controls (100% = plants have died)
Method in brief: as §1

Pharbitis purpurea [4] = assay: Pre-emergence herbicidal action, PHBPU; conditions: dosage 320 g/ha, scored visually after 3 weeks vs untreated controls (100% = plants have died)
Method in brief: as §1

[5] = comparative experiment, 80 g of a.i./ha
[6] = comparative experiment, post-emergence, 20 g of a.i./ha

CCn1nnnc1NC(=O)c1ccc(C(F)(F)F)c(CS(=O)(=O)CC)c1Cl [Example 2-301]
herbicidal action SETVI (Setaria viridis [1]): 100% | herbicidal action PHBPU (Pharbitis purpurea [2]): 90 | herbicidal action AMARE (Amaranthus retroflexus): 80 | herbicidal action SETVI (Setaria viridis [3]): 90 | herbicidal action ECHCG (Echinochloa crus-galli): 100%

CCn1nnnc1NC(=O)c1ccc(C(F)(F)F)c(CSCC(F)(F)F)c1Cl [Example 2-311]
herbicidal activity SETVI (Setaria viridis [1]): 100% | herbicidal action PHBPU (Pharbitis purpurea [2]): 90 | herbicidal action AMARE (Amaranthus retroflexus): 100 | herbicidal action SETVI (Setaria viridis [3]): 100 | herbicidal activity ECHCG (Echinochloa crus-galli): 100%

CCn1nnnc1NC(=O)c1ccc(Cl)c(CSC)c1Cl [Example 2-559]
herbicidal action SETVI (Setaria viridis [1]): 90% | herbicidal action PHBPU (Pharbitis purpurea [2]): 100 | herbicidal action AMARE (Amaranthus retroflexus): 100 | herbicidal action SETVI (Setaria viridis [3]): 100 | herbicidal action ECHCG (Echinochloa crus-galli): 100%

CCCn1nnnc1NC(=O)c1ccc(S(C)(=O)=O)c(CSC)c1C [Example 3-37]
herbicidal action PHBPU (Pharbitis purpurea [2]): 80 | herbicidal action AMARE (Amaranthus retroflexus): 100 | herbicidal action SETVI (Setaria viridis [3]): 90

CCCn1nnnc1NC(=O)c1ccc(S(C)(=O)=O)c(CS(C)(=O)=O)c1C [Example 3-39]
herbicidal action SETVI (Setaria viridis [1]): 80% | herbicidal action PHBPU (Pharbitis purpurea [2]): 90 | herbicidal action AMARE (Amaranthus retroflexus): 100 | herbicidal action SETVI (Setaria viridis [3]): 90 | herbicidal action ECHCG (Echinochloa crus-galli): 90%

CCCn1nnnc1NC(=O)c1ccc(C(F)(F)F)c(CSCC)c1C [Example 3-86]
herbicidal action SETVI (Setaria viridis [1]): 90% | herbicidal action PHBPU (Pharbitis purpurea [2]): 90 | herbicidal action SETVI (Setaria viridis [3]): 90 | herbicidal action ECHCG (Echinochloa crus-galli): 100%

CCCn1nnnc1NC(=O)c1ccc(C(F)(F)F)c(C[S+](C)[O-])c1OC (centres unmarked) [Example 3-135]
herbicidal action SETVI (Setaria viridis [1]): 100% | herbicidal action PHBPU (Pharbitis purpurea [2]): 90 | herbicidal action AMARE (Amaranthus retroflexus): 100 | herbicidal action SETVI (Setaria viridis [3]): 100 | herbicidal action ECHCG (Echinochloa crus-galli): 100%

CCCn1nnnc1NC(=O)c1ccc(C(F)(F)F)c(CSC)c1SC [Example 3-161]
herbicidal action SETVI (Setaria viridis [1]): 90% | herbicidal action PHBPU (Pharbitis purpurea [2]): 90 | herbicidal action AMARE (Amaranthus retroflexus): 100 | herbicidal action SETVI (Setaria viridis [3]): 100 | herbicidal action ECHCG (Echinochloa crus-galli): 100%

CCCn1nnnc1NC(=O)c1ccc(C(F)F)c(CSC)c1SC [Example 3-170]
herbicidal activity SETVI (Setaria viridis [1]): 100% | herbicidal action PHBPU (Pharbitis purpurea [2]): 90 | herbicidal activity PHBPU (Pharbitis purpurea [4]): 80% | herbicidal action AMARE (Amaranthus retroflexus): 100 | herbicidal activity ECHCG (Echinochloa crus-galli): 100%

CCCn1nnnc1NC(=O)c1ccc(C(F)F)c(C[S+](C)[O-])c1SC (centres unmarked) [Example 3-171]
herbicidal activity SETVI (Setaria viridis [1]): 100% | herbicidal action PHBPU (Pharbitis purpurea [2]): 90 | herbicidal activity PHBPU (Pharbitis purpurea [4]): 90% | herbicidal action AMARE (Amaranthus retroflexus): 100 | herbicidal activity ECHCG (Echinochloa crus-galli): 100%

CCCn1nnnc1NC(=O)c1ccc(C(F)F)c(CS(C)(=O)=O)c1SC [Example 3-172]
herbicidal activity SETVI (Setaria viridis [1]): 100% | herbicidal action PHBPU (Pharbitis purpurea [2]): 100 | herbicidal activity PHBPU (Pharbitis purpurea [4]): 80% | herbicidal action AMARE (Amaranthus retroflexus): 100 | herbicidal activity ECHCG (Echinochloa crus-galli): 100%

CCCn1nnnc1NC(=O)c1ccc(C(F)(F)F)c(CS(=O)(=O)CC)c1Cl [Example 3-301]
herbicidal action SETVI (Setaria viridis [1]): 100% | herbicidal action PHBPU (Pharbitis purpurea [2]): 100 | herbicidal action SETVI (Setaria viridis [3]): 90 | herbicidal action ECHCG (Echinochloa crus-galli): 100%

CCCn1nnnc1NC(=O)c1ccc(C(F)(F)F)c(CSCC(F)(F)F)c1Cl [Example 3-311]
herbicidal action SETVI (Setaria viridis [1]): 100% | herbicidal action PHBPU (Pharbitis purpurea [2]): 100 | herbicidal action AMARE (Amaranthus retroflexus): 100 | herbicidal action SETVI (Setaria viridis [3]): 80 | herbicidal action ECHCG (Echinochloa crus-galli): 80%

CCCn1nnnc1NC(=O)c1ccc(C(F)F)c(CS(=O)(=O)CC)c1Cl [Example 3-325]
herbicidal activity SETVI (Setaria viridis [1]): 100% | herbicidal action PHBPU (Pharbitis purpurea [2]): 90 | herbicidal activity PHBPU (Pharbitis purpurea [4]): 100% | herbicidal action SETVI (Setaria viridis [3]): 100 | herbicidal activity ECHCG (Echinochloa crus-galli): 100%

CCCn1nnnc1NC(=O)c1ccc(I)c(C[S+](C)[O-])c1Cl (centres unmarked) [Example 3-363]
herbicidal action SETVI (Setaria viridis [1]): 100% | herbicidal action PHBPU (Pharbitis purpurea [2]): 90 | herbicidal action AMARE (Amaranthus retroflexus): 100 | herbicidal action SETVI (Setaria viridis [3]): 100 | herbicidal action ECHCG (Echinochloa crus-galli): 100%

CCCn1nnnc1NC(=O)c1ccc(C(F)(F)F)c(CS(C)(=O)=O)c1Br [Example 3-382]
herbicidal action PHBPU (Pharbitis purpurea [2]): 100 | herbicidal action AMARE (Amaranthus retroflexus): 100 | herbicidal action SETVI (Setaria viridis [3]): 100 | herbicidal action ECHCG (Echinochloa crus-galli): 90%

CCS(=O)(=O)c1c(C(F)(F)F)ccc(C(=O)Nc2nnnn2C)c1Br [Example V-13, 2-bromo-3-(ethylsulfonyl)-N-(1-methyl-1-1H-tetrazol-5-yl)-4-(trifluoromethyl)benzamide, reference compound]
Herbicidal action against SETVI (Setaria viridis [1]; [5]): 0 | Herbicidal action against PHBPU (Pharbitis purpurea [2]; [6]): 0 | Herbicidal action against AMARE (Amaranthus retroflexus; [6]): 0 | Herbicidal action against SETVI (Setaria viridis [3]; [6]): 0 | Herbicidal action against ECHCG (Echinochloa crus-galli; [5]): 0
